From patent US20210292755A1, “NOVEL DOUBLE-STRANDED OLIGONUCLEOTIDES FOR THE TREATMENT OF CANCER” (SELEXEL, priority 2016, published 2021)
“Also recorded” adds a separate entry of the source.

Columns and labels:
H2AX = assay: Western blot of H2AX after siRNA transfection; assay type: cell-based, human
Procedure: (§1) All the cells used in the following examples are human cells and express H2AX.
(§2) The cells are cultured in DMEM or RPMI supplemented with 10% fetal calf serum, or as recommended by the ATCC. When indicated, they are transfected with siRNA using lipofectamine (Life Technologies), following the supplier's protocol. The number of living cells after the indicated treatments was quantified by measuring their metabolic activity by the WST1 test according to the supplier's indications (Roche).
(§3) The effect of siRNA transfection and/or treatments by different chemotherapeutic agents on gene expression was measured: • by RT-qPCR quantification of mRNAs extracted by a conventional phenol-chloroform method (Trizol). The amount of RNA was normalized by measuring the cyclophilin A-encoding mRNA which is not regulated by AR (delta delta CT method). • by Western blotting on protein extracts. The antibodies used are: AR: Santacruz, N-20 sc-816; H2AX: Merck Millipore ref 07-627; Tubulin: Sigma T6199; Actin: Merck Millipore MAB 1501; γH2AX: Merck Millipore 05-636. […] The antibodies used are the following: γH2AX: Merck Millipore 05-636; 53BP1: Novus, NB 100-304.

H2AX-encoding mRNA = assay: RT-qPCR of H2AX-encoding mRNA after siRNA transfection; assay type: cell-based, human
Procedure: as §1, §2, §3

[1] = test system: 22RV1 human prostate tumors; assay: Bone metastases of 22RV1 tumors in Nude mice (human HPRT mRNA); assay type: in vivo; settings: 0.2 mg/kg/day continuous subcutaneous, 3 weeks, in 154 mM NaCl
Procedure: Right panel: Metastatic load in bone as measured by the expression of human HPRT mRNA in both groups of animals. Each bar represents bone metastatic load in a mouse.
(§4) Tumors are obtained by subcutaneous injection of tumor cells into the flank of Nude mice. Only animals on which tumor uptake is found are included in the study and randomized to receive treatment or control treatment.
(§5) When indicated, the continuous administration of siRNA is carried out by implantation of an Alzet osmotic pump subcutaneously on the back of the mice, on the opposite side to the tumor when the mice wear one. The concentration of siRNA in the pump is adjusted to deliver the indicated amount in mg/kg/day taking into account the pump flow rate indicated by the manufacturer.
(§6) At the end of the experiment, the animals are sacrificed, the serum, the tumors and different tissues are dissected, the extracted RNAs and the siRNAs present in these RNAs are quantified.
(§7) In the experiment shown in FIG. 14, 22RV1 cells were implanted in Nude mice. Once the tumor was detected, Alzet pumps administering either 0.2 mg/kg/day siARH2AX-1 siRNA formulated in saline (154 mM NaCl), or the vehicle alone, were implanted for 3 weeks. At the end of treatment, the bones (tibia) were recovered to quantify siARH2AX-1, and the androgen receptor- and the HPRT-encoding mRNAs of human origin.

human AR mRNA = assay: AR mRNA in tibia of 22RV1 tumor-bearing mice; assay type: in vivo; settings: Nude mice with 22RV1 tumors, 0.2 mg/kg/day continuous subcutaneous, 3 weeks, in 154 mM NaCl
Procedure: Left panel: Expression level of human AR mRNA in nude mouse tibia carrying 22RV1 human prostate tumors in vehicle-treated mice (154 mM NaCl, black bar) or siARH2AX-1 diluted in this vehicle (gray bar) and administered subcutaneously continuously for 3 weeks (mean±SEM, n=7 values relative to the mean value of the NaCl group).
as §4
When indicated, the continuous administration of siRNA is carried out by implantation of an Alzet osmotic pump subcutaneously on the back of the mice, on the opposite side to the tumor when the mice wear one. […]
as §6, §7

γH2AX [2] = assay: Western blot of γH2AX after siRNA transfection; assay type: cell-based, human; settings: PC3 cells, 72 hours after transfection
Procedure: as §1, §2, §3

53BP1 = assay: Indirect immunofluorescence of 53BP1, bleomycin-treated transfected cells; assay type: cell-based, human
Procedure: (§8) FIG. 8: Immuno detection of γH2AX (first column) and 53BP1 (second column) in C4-2 cells treated for 6 h with bleomycin ([…]) or the vehicle added 72 h after transfection of cells by a control siRNA (Cont), siAR7 siRNA, or siARH2AX-1.
as §1, §2, §3
(§9) In the experiment shown in FIG. 8, C4-2 cells were transfected with a control or siARH2AX-1 siRNA. 72 hours after transfection, the cells were then treated for 6 hours with […] of bleomycin or the corresponding vehicle.

AR = assay: Western blot of AR after siRNA transfection; assay type: cell-based, human; settings: C4-2 cells, 72 h after transfection
Procedure: as §1, §2, §3

U87 cells = assay: WST1 cell viability test; assay type: cell-based, human; settings: 72 hr after transfection
Procedure: as §1, §2

LNCaP cells = assay: WST1 cell viability test; assay type: cell-based, human
Procedure: as §1, §2

MDA MB-453 cells = assay: WST1 cell viability test; assay type: cell-based, human; settings: 72 hr after transfection
Procedure: as §1, §2

WM266-4 cells = assay: WST1 cell viability test; assay type: cell-based, human
Procedure: as §1, §2

22RV1 cells = assay: WST1 cell viability test; assay type: cell-based, human; settings: 72 hr after transfection
Procedure: as §1, §2

MDA MB231 cells = assay: WST1 cell viability test; assay type: cell-based, human
Procedure: as §1, §2

C4-2 cells = assay: WST1 cell viability test; assay type: cell-based, human
Procedure: as §1, §2

AR-encoding mRNA = assay: RT-qPCR of AR-encoding mRNA after siRNA transfection; assay type: cell-based, human; settings: for AR mRNA expression: both lines
Procedure: as §1, §2, §3

[3] = siRNA distribution by RT-qPCR, continuous subcutaneous osmotic pump; assay type: in vivo; settings: 2 mg/kg/day continuous subcutaneous, 3 days, 22RV1 tumor-bearing mice; 10 mM citrate buffer pH 6 with oxidized LDL (1:0.1 weight:weight) versus 154 mM NaCl
Excerpt: To quantify a siRNA in the biological samples, the inventors have developed a reverse transcription method followed by a quantitative PCR (RT-qPCR). For each siRNA, a specific stem-loop primer, having 8 overflowing nucleotides is synthesized, the 8 nucleotides being complementary to the 8 nucleotides of the 3′ end of the siRNA guide (antisense) strand. After a reverse transcription step, the product obtained is amplified by PCR using two primers, one hybridizing with the region corresponding to the loop of the reverse transcription primer. The 12 nucleotides at 3′ of the second primer having a DNA sequence corresponding to the 12 nucleotides of the 5′ end of the newly synthesized cDNA after reverse transcription of the siRNA guide strand. Detection of the amplification is carried out continuously by the degradation of a Taqman fluorescent probe or by incorporation of SybrGreen.
A range of double stranded siRNAs, from 10^3 to 10^9 copies in the RT reaction, diluted in water is made and treated together with the samples by RT-qPCR.
The biological samples in which siRNAs are quantified are either serum or total RNAs extracted from tissue fragments of known weight assumed to contain siRNA. […]
At the end of the experiment, the animals are sacrificed, the serum, the tumors and different tissues are dissected, the extracted RNAs and the siRNAs present in these RNAs are quantified. […]

γH2AX [4] = assay: Indirect immunofluorescence of γH2AX, bleomycin-treated transfected cells; assay type: cell-based, human; settings: 72 hours after transfection
Procedure: as §8, §1, §2, §3, §9

PSA-encoding mRNA = assay: RT-qPCR of PSA-encoding mRNA after siRNA transfection; assay type: cell-based, human; settings: LNCaP or C4-2 cells, both lines, 72 hours after transfection
Procedure: as §1, §2, §3
In the experiment shown in FIG. 4, the LNCaP or C4-2 tumor cells were transfected with the following siRNAs: Cont, siAR7 or siARH2AX-1.

[5] = test system: 22RV1 human prostatic tumor; assay: Subcutaneous tumor volume in mice; assay type: in vivo; settings: 2 mg/kg/day
Procedure: as §4, §5
The subcutaneous tumors volume is estimated by measuring with a calliper the largest (D), the smallest (d) diameter of the tumors and their height (h). The volume is calculated by the formula V=D×d×h×Pi/6.

[6] = C4-2 cells, 48 hours after transfection, relative to control siRNA
[7] = 40 μl of etoposide added 24 hours after transfection, WST1 48 h later

With “siARH2AX-1: bispecific AR-H2AX siRNA, SEQ ID NO: 1 GACUCAGCUGCCCCAUCCA[dT][dT] and SEQ ID NO: 2 UGGAUGGGGCAGCUGAGUC[dT][dT] (chain 1 GACUCAGCUGCCCCAUCCANN; chain 2 UGGAUGGGGCAGCUGAGUCNN; 3' dTdT overhangs, chemistry not fully specified)” the H2AX protein expression (H2AX; C4-2 cells, 72 h after transfection) was “inhibits the expression of both AR and H2AX proteins”, the H2AX protein expression (H2AX; PC3 cells, 72 hours after transfection) was “is inhibited” and the “H2AX expression (mRNA)” value (H2AX-encoding mRNA; [6]) was “much more effective than siAR2 siRNA in inhibiting H2AX expression”. For the same substance, the “inhibition of H2AX mRNA expression” value (H2AX-encoding mRNA; LNCaP or C4-2 cells, both lines, 72 hours after transfection) was “more than 90%”, the “H2AX mRNA expression” value (H2AX-encoding mRNA; LNCaP or MDA MB-453 cells, both lines, 72 h after transfection) was “inhibits the expression of the two AR- and H2AX-encoding mRNAs” and the “number of mice spontaneously developing bone metastases” value [1] was “decrease in the number of mice spontaneously developing bone metastases”. For the same substance, the “size of bone metastases (human HPRT mRNA level in bone)” value [1] was “decrease in the size of these tumors”, the “expression of the androgen receptor in the bones (tibia)” value (human AR mRNA) was “inhibit the expression of the androgen receptor” and the γH2AX phosphorylated form (γH2AX [2]) was “inhibition of its γH2AX phosphorylated form”. The “expression of 53BP1” value (53BP1; C4-2 cells, 72 hours after transfection, without bleomycin, compared to control condition) was “comparable”, the DNA repair (53BP1; conclusion from γH2AX/53BP1 experiment in C4-2 cells) was “inhibits DNA repair” and the “recruitment of 53BP1 to DNA lesions after bleomycin” value (53BP1; siRNA-transfected C4-2 cells, 72 hours after transfection, bleomycin 6 hours) was “no increase H2AX or recruitment of 53BP1”. The AR protein expression (AR) was “inhibits the expression of both AR and H2AX proteins”, the “cell viability / proliferation” value (U87 cells) was “inhibits the proliferation of all cell lines” and the “cell viability / proliferation” value (LNCaP cells; 72 hr after transfection) was “inhibits the proliferation of all cell lines”. The “cell survival, siRNA combined with bleomycin, versus addition of the separate effects” value (LNCaP cells; bleomycin (10 μM)) was “approximately twice as inhibitory”, the “cell viability / proliferation” value (MDA MB-453 cells) was “inhibits the proliferation of all cell lines” and the “cell viability, siRNA combined with etoposide” value (from here on “cell viability … with etoposide”) (WM266-4 cells; [7]) was “potentiate when combined”. The “cell viability / proliferation” value (WM266-4 cells; 72 hr after transfection) was “inhibits the proliferation of all cell lines”, the “cell viability / proliferation” value (22RV1 cells) was “inhibits the proliferation of all cell lines” and the “cell viability … with etoposide” value (MDA MB231 cells; [7]) was “potentiate when combined”. The “cell viability / proliferation” value (MDA MB231 cells; 72 hr after transfection) was “inhibits the proliferation of all cell lines”, the cell viability (MDA MB231 cells; 90 hours after transfection) was “significantly reduced” and the “cell viability / proliferation” value (C4-2 cells; 72 hr after transfection) was “inhibits the proliferation of all cell lines”. For the same substance, the cell viability (C4-2 cells; 90 hours after transfection) was “significantly reduced”, the “cell viability, siRNA combined with bleomycin” value (C4-2 cells; bleomycin (10 μM) added 48 hours after transfection, read 48 hours later, versus chemotherapeutic agent alone) was “potentiate to inhibit cell viability” and the “cell viability … with etoposide” value (C4-2 cells; etoposide (10 μM) added 48 hours after transfection, read 48 hours later, versus chemotherapeutic agent alone) was “potentiate to inhibit cell viability”. The “AR expression (mRNA)” value (AR-encoding mRNA; [6]) was “inhibit AR expression in a similar manner”, the “AR mRNA expression” value (AR-encoding mRNA; LNCaP or C4-2 cells, 72 hours after transfection) was “inhibit the expression of AR and PSA” and the “AR mRNA expression” value (AR-encoding mRNA; LNCaP or MDA MB-453 cells, 72 h after transfection) was “inhibits the expression of the two AR- and H2AX-encoding mRNAs”. The “concentration of siARH2AX-1 in serum, different organs and tumors” value [3] was “increases the concentration”, the “expression of H2AX (immunofluorescence)” value (γH2AX [4]; C4-2 cells, without bleomycin, compared to control condition) was “very small compared to the control condition” and the “γH2AX labeling after bleomycin” value (γH2AX [4]; siRNA-transfected C4-2 cells, bleomycin 6 hours) was “no increase H2AX”. The “PSA mRNA expression” value (PSA-encoding mRNA) was “inhibit the expression of AR and PSA”, the “tumor development, combination with etoposide” value ([5]; siARH2AX-1 2 mg/kg/day continuous subcutaneous plus etoposide intraperitoneal) was “potentiates the effect of these two treatments taken separately; also recorded: amplifies tumor growth inhibition” and the tumor development ([5]; siARH2AX-1 2 mg/kg/day continuous subcutaneous, 22 days, 10 mM citrate buffer pH 6 with 10 mM MgCl2) was “as effective as the high dose of etoposide; also recorded: effectively inhibits tumor development”.
